Experimental findings from ChEMBL document CHEMBL1128236, “Highly kappa receptor-selective dynorphin A analogues with modifications in position 3 of dynorphin A(1-11)-NH2” (J Med Chem, 1995) are described below.

By IC50 is commonly meant the midpoint of a concentration-inhibition curve.

For assay [1], the target named is Kappa-type opioid receptor (Cavia porcellus, UniProt P41144). The experiment in a line: Binding affinity towards Opioid receptor kappa 1 in guinea pig brain using [3H]U-69593 as radioligand.
For assay [2], the species on record is Cavia porcellus. The experiment in a line: Shift in the activity was determined; ns= no significant shift observed with 1000 nM CTAP used as a mu antagonist. It is filed as functional.
The next assay has as its target Mu-type opioid receptor (Cavia porcellus, UniProt P97266). The experiment in a line: Binding affinity towards Opioid receptor mu 1 in guinea pig brain using [3H]DAMGO as radioligand.
The species entered for assay [3] is Cavia porcellus. The experiment in a line: Ability to inhibit the electrically evoked contraction of the guinea pig ileum(GPI) of the Compound was determined. The assay is classed as functional.
Assay [4] is described as follows: Compound was evaluated for its receptor binding affinity at [3H]cyclo[D-pen2,p-cl-Phe4,D-Pen5](delta receptor) to opioid receptor in guinea pig brain.

Mu-type opioid receptor, sequence (P97266 whole entry): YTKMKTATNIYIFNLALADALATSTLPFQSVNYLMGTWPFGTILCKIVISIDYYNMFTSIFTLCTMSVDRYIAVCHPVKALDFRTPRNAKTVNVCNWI
Kappa-type opioid receptor, sequence (P41144 whole entry): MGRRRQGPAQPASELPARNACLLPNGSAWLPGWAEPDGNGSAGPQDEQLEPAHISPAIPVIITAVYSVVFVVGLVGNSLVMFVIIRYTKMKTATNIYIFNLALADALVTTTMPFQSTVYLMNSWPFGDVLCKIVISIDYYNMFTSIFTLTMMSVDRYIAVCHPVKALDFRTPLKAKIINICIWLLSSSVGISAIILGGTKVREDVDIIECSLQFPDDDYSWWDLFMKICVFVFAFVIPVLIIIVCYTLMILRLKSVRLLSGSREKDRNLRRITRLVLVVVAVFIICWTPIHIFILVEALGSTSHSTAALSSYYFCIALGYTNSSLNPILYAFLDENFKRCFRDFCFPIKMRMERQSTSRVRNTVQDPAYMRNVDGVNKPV

`CC[C@H](C)[C@H](NC(=O)[C@H](CCCN=C(N)N)NC(=O)[C@H](CCCN=C(N)N)NC(=O)[C@H](CC(C)C)NC(=O)[C@H](Cc1ccccc1)NC(=O)[C@@H](C)NC(=O)CNC(=O)[C@@H](N)Cc1ccc(O)cc1)C(=O)N[C@@H](CCCN=C(N)N)C(=O)N1CCC[C@H]1C(=O)N[C@@H](CCCCN)C(N)=O`: the IC50 was 0.76 nM in assay [1], “Not Active” in the assay listed under Cavia porcellus [2], 260 nM at Mu-type opioid receptor and 8.1 nM in the assay listed under Cavia porcellus [3].

For the compound `CC[C@H](C)[C@H](NC(=O)[C@H](CCCNC(=N)N)NC(=O)[C@H](CCCNC(=N)N)NC(=O)[C@H](CC(C)C)NC(=O)[C@H](Cc1ccccc1)NC(=O)CNC(=O)CNC(=O)[C@@H](N)Cc1ccc(O)cc1)C(=O)N[C@@H](CCCNC(=N)N)C(=O)N1CCC[C@H]1C(=O)N[C@@H](CCCCN)C(N)=O`, the IC50 in assay [4] is 25.5 nM; in the assay filed under Cavia porcellus [2] it was “Not Active”.

Turning to `CC[C@H](C)[C@H](NC(=O)[C@H](CCCN=C(N)N)NC(=O)[C@H](CCCN=C(N)N)NC(=O)[C@H](CC(C)C)NC(=O)[C@H](Cc1ccccc1)NC(=O)[C@H](C)NC(=O)CNC(=O)[C@@H](N)Cc1ccc(O)cc1)C(=O)N[C@@H](CCCN=C(N)N)C(=O)N1CCC[C@H]1C(=O)N[C@@H](CCCCN)C(N)=O`, the IC50 in assay [1] was 1.1 nM; in the assay listed under Cavia porcellus [2] it was “Not Active”; at Mu-type opioid receptor, 210 nM; in the assay listed under Cavia porcellus [3], 1.7 nM.
